Like-named read-outs stand apart in the source and are kept apart here.
Experiments:
[1] = test system: db/db mice; settings: mouse, in vivo
Source text: i) Animals • A total of twenty (20) male db/db mice (8 weeks old) were obtained from Charles River (Germany). Upon arrival, animals were group housed (n=6-7/group) and offered regular rodent chow (Altromin standard #1324 chow; C. Petersen, Ringsted, Denmark) and water ad libitum unless otherwise stated. The mice were housed under a 12:12 L/D cycle (lights on at 4:00 and lights off at 16:00) and in temperature and humidity controlled rooms.
ii) Groups and Randomization • On day −4, mice were randomized according to blood glucose level (fasted; blood glucose measured on Biosen S line analyzer (EKF diagnostic, Germany) to participate in one of the following drug treatment groups (n=6): • 1) Vehicle control, S.C. (physiological saline) • 2) XG-102 (SEQ ID NO: 11); 1 mg/kg; s.c. • 3) XG-102 (SEQ ID NO: 11); 10 mg/kg; s.c • All doses listed were calculated for the free-base. […] All compounds were administered sub-cutaneously (s.c.) in a volume of 3 ml/kg. The formulation instructions for vehicle control and XG-102 (SEQ ID NO: 11) were as follows: • First, XG-102 (SEQ ID NO: 11) was dissolved in the vehicle. […]
i) Blood Glucose • Blood glucose was measured from 7 hour fasted animals 6 hours post dosing by collection of 10 μl blood samples from the tail-vein in hematocrite tubes and subsequent analysis on a Biosen s-line analyzer (EKF-diagnostic; Germany).

[2] = test system: Wistar rats, PAN-induced nephropathy; settings: rat, in vivo
Source text: The aim of this study was to evaluate the effects of XG-102 on chronic puromycine aminonucleoside-induced nephropathy in rats during 56 days. Puromycin aminonucleoside (PAN) is a podocyte toxin inducing a loss and fusion of podocytes foot processes. PAN-induced nephropathy is a well-described model of human idiopathic […] syndrome and focal segmental glomerulosclerosis ([…], 2008). The glomerular morphologic changes seen in rats with PAN nephrosis closely resemble those in human minimal change disease (MCD) and focal segmental glomerulosclerosis (FSGS). Intraperitoneal administration of PAN in rats results in a rapid development of […] syndrome, characterized by proteinuria, hypoalbuminemia and hypercholesterolemia (acute phase). This is a well-established animal model of human MCD. […] The slides were stained by hematoxylin/eosin (HE), PAS-methenamine silver and Sirius Red for histological evaluation of morphological alterations, glomerulosclerosis and interstitial fibrosis quantification, respectively. […] Results are expressed by semi-quantitative scoring following to expert histopathologist evaluation. For the histological examination of glomerulosclerosis glomerular changes have been evaluated using a semi quantitative scoring system as described by […]. […] All data have been calculated as mean values±standard error of the mean (s.e.m.). […]

[3] = test system: rats; test: Ocular MTD studies, sub-conjunctival administration; format: in vivo, rat
Source text: Despite technical advances in ocular surgery, the physical trauma of this procedure continues to induce post-operative ocular inflammation warranting treatment. In ocular tissue, arachidonic acid is metabolized by cyclooxygenase (COX) to prostaglandins (PG) which are the most important lipid-derived mediators of inflammation. Surgical trauma causes a trigger of the arachidonic acid cascade which in turn generates PGs by activation of COX-1 and COX-2. Phospholipids in the cell membrane are the substrate for phospholipase A to generate arachidonic acid from which a family of chemically distinct PGs and leukotriens are produced. The ‘golden standard’ for the treatment of ocular inflammation are topical corticosteroids and/or Non-Steroidal Anti-inflammatory Drugs (NSAIDs). Side effects reported with (short-term) corticosteroid use include cataract formation, increased Intra Ocular Pressure (IOP), increased susceptibility to viral infections and retardation of the corneal epithelial and stromal wound healing. In addition, prolonged treatment with corticosteroids have been known to induce systemic side effects such as glucose impairment, hypertension, development of glaucoma, visual acuity defects, loss of visual field, and posterior subcapsular cataract formation. […]

CC(C)C[C@@H](NC(=O)[C@@H](Cc1ccccc1)NC(=O)[C@H]1CCCN1C(=O)[C@@H](CCC(N)=O)NC(=O)[C@H](NC(=O)[C@H]1CCCN1C(=O)[C@@H](CCCNC(=N)N)NC(=O)[C@@H](CO)NC(=O)[C@@H](CCC(N)=O)NC(=O)[C@H](N)CC(=O)O)C(C)C)C(=O)N[C@H](CC(N)=O)C(=O)N[C@H](CC(C)C)C(=O)N[C@@H](C(=O)N[C@@H](C(=O)N1CCC[C@@H]1C(=O)N[C@H](CCCNC(=N)N)C(=O)N[C@H](CCCCN)C(=O)N1CCC[C@@H]1C(=O)N[C@H](CCCNC(=N)N)C(=O)N1CCC[C@@H]1C(=O)N1CCC[C@@H]1C(=O)N[C@H](CCCNC(=N)N)C(=O)N[C@H](CCCNC(=N)N)C(=O)N[C@H](CCCNC(=N)N)C(=O)N[C@H](CCC(N)=O)C(=O)N[C@H](CCCNC(=N)N)C(=O)N[C@H](CCCNC(=N)N)C(=O)N[C@H](CCCCN)C(=O)N[C@H](CCCCN)C(=O)N[C@H](CCCNC(=N)N)C(=O)NCC(=O)O)[C@H](C)O)[C@H](C)O [XG-102]
reaction of subcutaneous tissue at injection ([1]; 1 mg/kg): mild nodular fibrosis was observed | reaction of subcutaneous tissue at injection ([1]; 10 mg/kg): nodular fibrosis was observed in the subcutaneous tissue | body weight [2]: no effects of XG-102 were observed | No Observed Adverse Effect Level (NOAEL) [3]: around 20 μg

From patent US11779628B2, “Use of cell-permeable peptide inhibitors of the JNK signal transduction pathway for the treatment of various diseases” (Xigen Inflammation Ltd., priority 2014, dated 2023)
